Data on 88 compounds can be found in a melting point compilation (Tetko et al.; mined from patent text by program, amines drawn as free bases though some values may be those of a salt).

Regarding `CN(Cc1ccc[nH]1)C1CCCN(C(=O)c2ccc(Nc3nccc(Nc4ccc(F)cc4)n3)cc2)C1` (stereo not drawn), the melting point (in general, the temperature, or range, at which the solid turns liquid) lay in the range of 148 to 151 °C.

`COc1cccc2c1cc(C(=O)NCCc1ccncc1)n2Cc1cccc(C(=N)NO)c1` came in with a melting point of 220 to 222 °C.

Compound `CCOC(=O)c1sc2cc(OCc3ccccc3)ccc2c1Cl` yielded a melting point of 98 to 100 °C.

Turning to `C=CCNC(=O)c1ccc(-c2ccc3nnn(Cc4ccc5ncccc5c4)c3n2)cc1F`, the melting point is 162 to 164 °C.

Compound `COc1cc(C(=O)c2nc(NC(C)=O)c3ccccn23)ccc1[N+](=O)[O-]` had a melting point of 256 °C.

On to `COc1ccc(OCC(O)CN2CCC(Nc3nc4ccccc4n3Cc3ccc(F)cc3)CC2)cc1` (stereo not drawn), for which the melting point came out at 174 °C.

With `O=c1[nH]c2ccc(Cl)cc2c(=O)n1CCCCN1CC=C(c2ccccc2)CC1`, the melting point lay within 214 to 222 °C.

`C[C@@H]1CN(C(=O)[C@@](C)(O)C(F)(F)F)[C@@H](C)CN1S(=O)(=O)c1ccc(C(=O)O)cc1` returned a melting point of 194 to 196 °C.

Compound `Cc1ccc(C(=O)Cn2cncn2)cc1` yielded a melting point of 118 °C.

For `O=C(CCCN1CCOCC1)Nc1cccc(-c2ccnc3c(C(=O)c4cccs4)cnn23)c1`, the melting point was 127 to 133 °C.

`CCCC1(C2=CCN(C)CC2)c2ccccc2CCc2ccccc21` came in with a melting point of 122 to 124 °C.

In the case of `CCC1(CC)c2cc(I)ccc2-c2ccc(-c3nc4ccccc4s3)cc21`, the melting point fell in the range of 158 to 160 °C.

Compound `COc1cc(F)ccc1-c1ccc(S(=O)(=O)N2c3ccccc3CC2C(=O)NCCOc2ccc(CC(=O)O)cc2)cc1` (stereo not drawn) displayed a melting point of 102 to 110 °C.

The compound `CCCN(CCC)CC1CCn2c(nc3ccccc32)S1` (stereo not drawn) came in with a melting point of 82 to 84 °C.

In turn, `O=C1CCC(c2ccccc2)(c2ccccc2)[C@@H]2CN(C(=O)Cc3c[nH]c4ccccc34)C[C@H]12` (racemic) yielded a melting point of 250 °C.

Take `Nn1c(-c2ccccc2Cl)nnc1-c1ccccc1C(F)(F)F`: the melting point lay in the range of 172 to 175 °C.

`CCOC(=O)c1cc2cc(-c3ccc(NC(C)=O)cc3)ccc2o1` registered a melting point of 174 to 176 °C.

Take `O=Cc1cccc2ncc(C3CCCCC3)cc12`: the melting point was in the range of 94 to 95 °C.

Compound `Cn1cnc2c1c(=O)n(CCCN1CCN(c3ccc(Cl)nn3)CC1)c(=O)n2C` gave a melting point of 285 to 287 °C.

The compound `Cn1cc(C2=C(c3c4n(c5ccccc35)CCC(COS(C)(=O)=O)C4)C(=O)NC2=O)c2ccccc21` (stereo not drawn) gave a melting point of 259 to 261 °C.

The compound `O=C(O)c1ccc(-c2cnc(-c3ccc(C(F)(F)F)cc3)s2)cc1` came in with a melting point of 294 to 295 °C.

For the compound `Oc1c2c(nc3c(-c4cc(-c5ccccc5)cs4)cnn13)CCCC2`, the melting point was in the range of 271 to 272 °C.

The compound `NC(=NO)c1nn(-c2c(Cl)cc(C(F)(F)F)cc2Cl)c(N)c1S(=O)C(F)(F)F` (stereo not drawn) gave a melting point of 203 to 205 °C.

Consider `COC(=O)[C@@H]1C[C@H]1C(=O)O` (relative stereo), for which the melting point was in the range of 46 to 47 °C.

For `Cc1nccc2[nH]c(=O)c(C(=O)O)cc12`, the melting point lay within 255 to 257 °C.

Compound `C=CCOc1cccc(C(=O)O)c1` returned a melting point of 78 to 79 °C.

`O=C1c2ccccc2-n2cnc(Cl)c2[C@@H]2CCN12` returned a melting point of 210 to 214 °C.

Consider `O=CNc1ccc(-c2ccncc2)cc1`, for which the melting point is 188 to 190 °C.

Compound `CC(C#Cc1ccc(Cl)cc1)N(O)C(N)=O` (stereo not drawn) showed a melting point of 159 to 161 °C.

For `Cc1ccc(C(=O)NNc2ccc(NC(=S)Nc3ccccc3)cc2)cc1`, the melting point is 186 to 187 °C.

With `CCOC(=O)c1sc(-n2ccc(OCc3ccc(C(F)(F)F)o3)cc2=O)nc1C`, the melting point was 196 to 198 °C.

Consider `CCCC1CCC(C2CCC3(CC2)C(=O)C2(CCC(C4CCC(CCC)CC4)CC2)C3=O)CC1` (stereo not drawn), for which the melting point is 290 °C.

In turn, `CCc1ccc(NC(=O)NCc2ccc3c(c2)CN(C2CCC(=O)NC2=O)C3=O)cc1` (stereo not drawn) displayed a melting point of 263 to 265 °C.

Compound `COc1ccc(Nc2nc(Cl)nc(NC3CC3)n2)cc1Cl` gave a melting point of 172 °C.

Turning to `CN(C)c1cc2c(cc1Cl)NC(=O)CC(c1cccc(-c3csc(N)n3)c1)=N2`, the melting point was 247 to 248 °C.

`O=C(C=NNc1cc(Oc2ncccn2)c(Cl)cc1F)C(F)(F)F` registered a melting point of 188 to 190 °C.

With `O=C(Nc1cccc(S(=O)(=O)NCc2cccnc2)c1)c1cnn2c(C(F)F)cc(-c3ccc(C(F)(F)F)cc3)nc12`, the melting point stood at 256 °C.

`Cn1ncc2c1CCCc1c-2cnn1C` returned a melting point of 191 to 195 °C.

Turning to `CCOc1nc2ccccc2n2cc(C(=O)O)nc12`, the melting point lay in the range of 220 to 222 °C.

In turn, `CCc1cc(CCCOc2c(C)cc(-c3noc(C)n3)cc2C)on1` registered a melting point of 85 to 86 °C.

The compound `CCCc1nn(C)c2c(=O)[nH]c(-c3ccccc3OCC)nc12` gave a melting point of 143 to 146 °C.

As to `Fc1ccc(Cn2c(NC3CCN(CCNc4ncccn4)CC3)nc3cncnc32)cc1`, the melting point turned out to be 164 °C.

Compound `O=Cc1c[nH]c(=O)c2ccccc12` came in with a melting point of 222 to 223 °C.

Turning to `COC(=O)c1cc(CO)ccc1OCc1nc(-c2ccco2)oc1C`, the melting point fell in the range of 131 to 132 °C.

Compound `O=c1oc(-c2ccc(Sc3ccccc3)cc2)nc2sccc12` gave a melting point of 203 to 204 °C.

Compound `O=C(NCc1ccccc1)C(Cc1c[nH]c2ccccc12)NC(=O)C(F)(F)F` (stereo not drawn) showed a melting point of 186 to 188 °C.

For `O=c1c2c(Cc3ccc(F)cc3)n[nH]c2c2cccnc2n1-c1ccccc1`, the melting point is 271 to 274 °C.

The compound `CC(C)(C)c1csc(-c2cc3cc(Cn4c(C(N)=O)cc5ccccc54)ccc3o2)n1` yielded a melting point of 151 to 152 °C.

In the case of `CC(=O)Nc1ccc(Cn2cnc3c(Cl)ncnc32)cc1`, the melting point fell in the range of 240 to 242 °C.

As for `COc1cc(C#N)ccc1OCCCBr`, the melting point is 99 to 101 °C.

The compound `CON(Cc1ccc(C)cc1)C(=O)C1=C(O)C(=O)N(C)C1` yielded a melting point of 150 to 152 °C.

For `COc1nc2cc(C)c(C)c(NS(C)(=O)=O)c2nc1OC`, the melting point stood at 219 °C.

With `N#Cc1c(C(=O)O)cnn1-c1ccc(Br)cc1`, the melting point was in the range of 209 to 211 °C.

Consider `O=C(CCN1CCCCC1)Nc1cccc([N+](=O)[O-])c1`, for which the melting point is 95 to 96 °C.

Turning to `CCNC(=S)c1c(Cl)cccc1[Si](C)(C)C`, the melting point lay within 158 to 159 °C.

Compound `COC(=O)c1cc(O)n2nc(C)nc2n1` gave a melting point of 170 to 174 °C.

`Cc1cc(Oc2c(Cl)cc(C(F)(F)F)cc2Cl)nn1C(=O)NCC=O` showed a melting point of 111 to 113 °C.

The compound `CCOC(=O)c1ccc(CCC=O)cc1` had a melting point of 109 °C.

With `Cc1c(C(=O)Nc2ccc(Cl)c([N+](=O)[O-])c2)cnn1-c1ccc(C(F)(F)F)cc1`, the melting point lay in the range of 206 to 208 °C.

For `CC(=O)OC/C=C(\C)CCc1c(C)c(O)c(C)c(C)c1O`, the melting point is 94.5 to 96 °C.

In turn, `O=C1CCc2c(Cl)cc(Cl)c(I)c21` registered a melting point of 170 to 172 °C.

As for `O=C1CC(CN2C(=O)c3ccccc3C2=O)=Nc2ccccc2N1`, the melting point was 244 to 246 °C.

Compound `O=C(CCC(=O)N1CCC[C@H]1C(=O)O)c1ccc(Cl)cc1` registered a melting point of 137 to 138 °C.

`Cc1cccc(-c2cn(C)cc(-c3cccc(C)c3)c2=O)c1` had a melting point of 148 to 150 °C.

Turning to `O=C1Nc2ccc(Cl)cc2C1(O)c1ccccc1OCc1ccccc1` (stereo not drawn), the melting point was found to be 197 °C.

As for `CCOC(=O)c1cc(-c2ccc(OC)cc2)nn(C(C)C)c1=O`, the melting point turned out to be 141 °C.

As to `O=S(=O)(NCCc1ccncc1)c1ccc(Br)s1`, the melting point was 133 to 134 °C.

On to `CC(=O)Nc1cc(C)c([N+](=O)[O-])cc1CCOC(C)=O`, for which the melting point came out at 125 °C.

Consider `O=C(Nc1ccc2cc(CN3CCCCC3)ccc2c1)c1ccc(-c2ccc(Cl)cc2)nc1`, for which the melting point is 228 to 229 °C.

In the case of `O=C1COc2ccc(C3=Cc4cccnc4SC3c3ccccc3)cc2N1` (stereo not drawn), the melting point fell in the range of 242 to 244 °C.

Regarding `COc1cccc2c1Oc1cc(Cl)ccc1C2`, the melting point fell in the range of 106 to 108 °C.

The compound `C=CC(=O)Oc1c(C(C)c2cc(C(C)(C)C)cc(C(C)(C)C)c2O)cc(C(C)(C)C)cc1C(C)(C)C` (stereo not drawn) showed a melting point of 190 to 192 °C.

Compound `CSc1n[nH]c(-c2cc(C(C)(C)C)c(O)c(C(C)(C)C)c2)n1` came in with a melting point of 271 to 272 °C.

For `CCCOC(=O)c1c(-c2ccncc2)[nH]c(-c2ccncc2)c1C`, the melting point was 215 to 218 °C.

`COc1c(O)nc(-c2ccc(OCc3ccccc3)cc2)nc1O` had a melting point of 251 to 252 °C.

`NOC(C=CCBr)C(=O)O` (stereo not drawn) had a melting point of 53 to 55 °C.

`Cc1ccc(C(=O)N(C)C)cc1-c1nc(NC2CCN(C)CC2)nc2c1CNC(=O)N2c1c(F)cccc1F` returned a melting point of 163 to 165 °C.

The compound `COc1ccc(C(=O)c2cccnc2N2CCCC2=O)cc1` showed a melting point of 76 to 77 °C.

Turning to `O=C(O)c1cc2c3ccccc3[nH]c(=S)n2n1`, the melting point fell in the range of 272 to 273 °C.

The compound `Fc1cc(Br)ccc1-c1ccc(Cl)cc1Cl` yielded a melting point of 63 to 65 °C.

Regarding `Cc1cc(CCCCCOc2cc(Cl)c(-c3nnc(C)o3)c(Cl)c2)on1`, the melting point lay in the range of 71 to 72 °C.

The compound `Cc1ccc(OC(=CC(=O)c2ccc(Br)cc2)C(=O)c2ccc(Br)cc2)cc1` had a melting point of 137 to 138 °C.

Regarding `COc1cc(Oc2cccc3c2NC(=O)C3SC)cc(OC)c1OC` (stereo not drawn), the melting point is 155 to 158 °C.

Compound `CC(C)[C@H](NC(=O)OCc1ccccc1)C(=O)OCc1nc2c(N)nc3ccccc3c2n1CCCCNS(C)(=O)=O` registered a melting point of 99 to 100 °C.

In turn, `O=C(NCc1ccn(-c2cc3c(cc2[N+](=O)[O-])[nH]c(=O)c(=O)n3C2CCCCC2)c1)Nc1ccncc1` showed a melting point of more than 200 °C.

In the case of `COC(=O)C1=Cc2cc(-c3ccc(C(F)(F)F)cc3)ccc2S(=O)(=O)CC1`, the melting point was in the range of 168 to 170 °C.

`COc1cc(C(C)C)c(Oc2cnc(N)nc2N)cc1-c1ccco1` showed a melting point of 199 to 203 °C.

`CCCCCSC1=NC(c2cccc([N+](=O)[O-])c2)C(C(=O)OCC)=C(C)N1` (stereo not drawn) showed a melting point of 104 to 105 °C.
